# Molecular target: γ-secretase (Homo sapiens (Human), UniProt P49768)
# Test: γ-secretase membrane assay with Aβ40 ECL immunoassay
# Assay type: biochemical
# Settings: membranes of 293 cells expressing C99 (SPC99-lon), 37° C. for 1 h, Aβ 40 by ECL immunoassay
# Experimental: Gamma-secretase activity was determined as described by Zhang et al. (Biochemistry, 40 (16), 5049-5055, 2001), which is herein incorporated by reference. Activity is expressed either as a percent inhibition or as the concentration of compound producing 50% inhibition of enzyme activity.
# The construct SPC99-Ion, which contains the first 18 residues and the C-terminal 99 amino acids of APP carrying the London mutation, has been described (Zhang, L., Song, L., and Parker, E. (1999) J. Biol. Chem. 274, 8966-8972). Upon insertion into the membrane, the 17 amino acid signal peptide is processed, leaving an additional leucine at the N-terminus of Aβ. SPC99-lon was cloned into the pcDNA4/TO vector (Invitrogen) and transfected into 293 cells stably transfected with pcDNA6/TR, which is provided in the T-REx system (Invitrogen). The transfected cells were selected in Dulbecco's modified Eagle's media (DMEM) supplemented with 10% fetal bovine serum, 100 units/mL penicillin, 100 µg/mL streptomycin, 250 µg/mL zeocin, and 5 µg/mL blasticidin (Invitrogen). Colonies were screened for Aβ production by inducing C99 expression with […] tetracycline for 16-20 h and analyzing conditioned media with a sandwich immunoassay (see below). One of the clones, designated as pTRE.15, was used in these studies.
# C99 expression in cells was induced with […] tetracycline for 20 h. The cells were pretreated with […] 12-myristate 13-acetate (PMA) and […] brefeldin A (BFA) for 5-6 h at 37 C before harvesting. The cells were washed 3 times with cold phosphate-buffered saline (PBS) and harvested in buffer A containing 20 mM Hepes (pH 7.5), 250 mM sucrose, 50 mM KCl, 2 mM EDTA, 2 mM EGTA, and Complete protease inhibitor tablets (Roche Molecular Biochemicals). The cell pellets were flash-frozen in liquid nitrogen and stored at −70° C. before use.
# To make membranes, the cells were resuspended in buffer A and lysed in a nitrogen bomb at 600 psi. The cell lysate was centrifuged at 1500 g for 10 min to remove nuclei and large cell debris. The supernatant was centrifuged at 100000 g for 1 h. The membrane pellet was resuspended in buffer A plus 0.5 M NaCl, and the membranes were collected by centrifugation at 200000 g for 1 h. The salt-washed membrane pellet was washed again in buffer A and centrifuged at 100000 g for 1 h. The final membrane pellet was resuspended in a small volume of buffer A using a Teflon-glass homogenizer. The protein concentration was determined, and membrane aliquots were flash-frozen in liquid nitrogen and stored at −70° C.
# To measure γ-secretase activity, membranes were incubated at 37° C. for 1 h in 50 μL of buffer containing 20 mM Hepes (pH 7.0) and 2 mM EDTA. At the end of the incubation, Aβ 40 and Aβ 42 were measured using an electrochemiluminescence (ECL)-based immunoassay. Aβ 40 was identified with antibody pairs TAG-G2-10 and biotin-W02, while Aβ 42 was identified with TAG-G2-11 and biotin-4G8. The ECL signal was measured using an ECL-M8 instrument (IGEN International, Inc.) according to the manufacturer's instructions. The data presented were the means of the duplicate or triplicate measurements in each experiment. The characteristics of γ-secretase activity described were confirmed using more than five independent membrane preparations.
row,Structure (SMILES),IC50 [nM]
1,O=S(=O)(CC[C@@H]1OCC[C@@]2(S(=O)(=O)c3ccc(Cl)cc3)c3c(F)ccc(F)c3OC[C@@H]12)c1cncnc1 [Compound 25g],12.9
2,COc1ccc(S(=O)(=O)CC[C@@H]2OCC[C@@]3(S(=O)(=O)c4ccc(Cl)cc4)c4c(F)ccc(F)c4OC[C@@H]23)cn1 [Compound 25h],16.5
3,O=S(=O)(CC[C@@H]1OCC[C@@]2(S(=O)(=O)c3ccc(Cl)cc3)c3c(F)ccc(F)c3OC[C@@H]12)c1ncccn1 [Compound 25e],6.4
4,O=S(=O)(CC[C@@H]1OCC[C@@]2(S(=O)(=O)c3ccc(Cl)cc3)c3c(F)ccc(F)c3OC[C@@H]12)CCn1cccn1 [Compound 4],1.4
5,O=S(=O)(CC[C@@H]1OCC[C@@]2(S(=O)(=O)c3ccc(Cl)cc3)c3c(F)ccc(F)c3OC[C@@H]12)c1cccnn1 [Compound 25b],4.5
6,O=S(=O)(CC[C@@H]1OCC[C@@]2(S(=O)(=O)c3ccc(Cl)cc3)c3c(F)ccc(F)c3OC[C@@H]12)c1ccnnc1 [Compound 25d],10.2
7,Cc1nc(CS(=O)(=O)CC[C@@H]2OCC[C@@]3(S(=O)(=O)c4ccc(Cl)cc4)c4c(F)ccc(F)c4OC[C@@H]23)no1 [Compound 14],5.8
8,O=S(=O)(CC[C@@H]1OCC[C@@]2(S(=O)(=O)c3ccc(Cl)cc3)c3c(F)ccc(F)c3OC[C@@H]12)Cc1ncon1 [Compound 11],1.7
9,O=S(=O)(CC[C@@H]1OCC[C@@]2(S(=O)(=O)c3ccc(Cl)cc3)c3c(F)ccc(F)c3OC[C@@H]12)c1ccncn1 [Compound 25f],2.9
10,O=c1ccc(S(=O)(=O)CC[C@@H]2OCC[C@@]3(S(=O)(=O)c4ccc(Cl)cc4)c4c(F)ccc(F)c4OC[C@@H]23)c[nH]1 [Compound 25a],18.7
11,O=S(=O)(CC[C@@H]1OCC[C@@]2(S(=O)(=O)c3ccc(Cl)cc3)c3c(F)ccc(F)c3OC[C@@H]12)Cc1cccnc1 [Compound 8b],6.6
12,O=S(=O)(CC[C@@H]1OCC[C@@]2(S(=O)(=O)c3ccc(Cl)cc3)c3c(F)ccc(F)c3OC[C@@H]12)Cc1ccccn1 [Compound 8a],1.9
13,O=S(=O)(CC[C@@H]1OCC[C@@]2(S(=O)(=O)c3ccc(Cl)cc3)c3c(F)ccc(F)c3OC[C@@H]12)c1cnccn1 [Compound 25c],5.5
14,Nc1ncccc1S(=O)(=O)CC[C@@H]1OCC[C@@]2(S(=O)(=O)c3ccc(Cl)cc3)c3c(F)ccc(F)c3OC[C@@H]12 [Compound 27b],18
15,O=c1[nH]cccc1S(=O)(=O)CC[C@@H]1OCC[C@@]2(S(=O)(=O)c3ccc(Cl)cc3)c3c(F)ccc(F)c3OC[C@@H]12 [Compound 27a],2.8
